The record followed here is publication PMC11274715 (2024).

Common to all, as to assay: ITC
Common to all, as to details: 40 mM NaCl, 5 mM MgCl2; 25 mM Tris-HCl pH 7.5, 25 °C; single-site model

Test [1] concerns SAM-VI M2 RNA (RNA, riboswitch) ACAACAGAAUGAACCAACGUAUCAUUGUGCCUUAUCCGCAAAAGGCGGGUAGGGCGAUAAGUCCGAAAGAGGGAUGAU
Test [2] has as its system SAM-VI AP RNA (RNA, riboswitch) CGUAUCAUUGUGCCUUAUCCGCAAAAGGCGGGUAGGGCGAUAAGUCCGAAAGAGGGAUGAUAUG
Test [3] concerns SAM-VI WT RNA (RNA, riboswitch) ACAACAGAAUGAACCAACGUAUCAUUGUGCCUUAUCCGCAAAAGGCGGGUAGGGCGAUAAGUCCGAAAGAGGGAUGAUAUG

The Kd is a measure of binding affinity in units of concentration. High values mean weaker binding, low ones tighter binding.

The compound `C[S+](CC[C@H](N)C(=O)O)C[C@H]1O[C@@H](n2cnc3c(N)ncnc32)[C@H](O)[C@@H]1O` (stereo partly drawn) had a Kd in test [1] of 419.95 µM. Also, the affinity in test [2] came to 5.33 µM; in test [3], 8.95 µM.
